Measured values reported in paper PMC8395040 (International Journal of Molecular Sciences, 2021).

Columns and labels:
HT29 [1] = assay: Cell cycle analysis (PI, flow cytometry), HT29; type: cell-based, human; details: 19 µM, 24 h, compared to the control
Description: HT29 and HEK293 cells were plated in 6-well plates at a density of 2.0 × 10^5 cells/1.5 mL/well and grown overnight at 37 °C in a 5% CO2 humidified atmosphere. […] Aliquots of cells were collected, pelleted, washed, and fixed with ethanol (70% v/v) for at least 30 min at 4 °C. Cells were resuspended twice in PBS and, after centrifugation and elimination of the supernatant, they were finally resuspended in a PBS solution containing propidium iodide (PI; […], Invitrogen), RNase A ([…], Invitrogen). After a final incubation for 1 h in the dark at 37 °C, the PI signal was measured using a FACS Canto II Flow-cytometer (BD; Mountain View, CA) with a 488 nm excitation laser, captured and FACS DIVA was used as the acquisition software. The percentage of cells in each phase was analysed using the FCS Express v6 software. Two independent biological replicates were performed.

tumour cell lines = assay: MTT cytotoxicity assay, summary over the tumour cell line panel; type: cell-based, human
Description: (§1) Cytotoxicity assays were performed by using the MTT reduction method as described previously. Briefly, cancer cell lines were plated in flat-bottom 96-well plates at a cell concentration of 5 × 10^3 cells/well for the fastest growing lines, such as HEK293 and HT29 cells and 1 × 10^4 cells/well for more slowly growing lines, such as HCT116, H1975, BxPC-3, AsPC-1, B16-F10 and DAOY. Then, cells were incubated with the synthesised compounds at different concentrations (from 0.05 to 50 µM) in 200 µL with 10% FBS in RPMI 1640 or DMEM F12 culture medium at 37 °C for 72 h. Later, 10 µL of MTT were added at a final concentration of 0.5 mg/mL, incubated at 37 °C for 4 h, and then solubilised with 10% sodium dodecyl sulphate (SDS) in 0.1 mM HCl and incubated overnight at 37 °C. Formazan formation was measured at 570 nm in a multiwell plate reader (Cytation 5, Biotek Instruments, Winooski, VT, USA). Three independent biological replicates were performed.

[2] = tested on: cancer cell lines (HH-dependent and HH-independent); assay: Annexin V-FITC/PI dose-response, cancer cell lines; type: cell-based, human; details: 1.5–50 µM, 72 h
Description: Apoptosis plays a major role in maintaining the homeostasis of cells. Cellular shrinkage and DNA fragmentation at the molecular level are characteristics acquired during apoptosis. Therefore, we performed flow cytometric analysis to determine if 4s could induce apoptosis in tumour cell lines. To this end, 4s-treated cells were stained with Annexin V-FITC and/or PI and analysed by flow cytometry. Dose–response effects were assessed using 4s at concentrations under 50 µM (1.5, 3.0, 6.25, 19, 25 and 50 µM) for 72 h.
Supplemental Figure S1: 4s triggers apoptosis in various cancer cell lines. A)
Dose-response curves are shown for four neoplastic cancer cell lines and HEK293 cells as a control. Cells were treated with 4s […]
stained with annexin V-FITC and propidium iodide (PI) and analyzed by flow cytometry.
Results are presented as the mean ± SD of three independent experiments. (***) p <
0.0001 vs. control. Data were analyzed with a non-parametric t-test. B) Representative dot plot of HT29 cells untreated (control) or treated for 3 h with 4s (19 µM ). […]

HEK293 = assay: CFSE proliferation assay, HEK293; type: cell-based, human; details: 19 µM, 48 h
Description: (§2) HT29 and HEK293 cells were resuspended at 1 × 10^6/mL in DMEM F12 without FBS. A 5 mM CFSE stock solution carboxyfluorescein diacetate succinimidyl ester (Cell Proliferation Kit, Life Technologies, Carlsbad, CA, USA) in DMSO was added to a final concentration of 5 µM and incubated at 37 °C for 15 min protected from light. At the end of the incubation period, the cells were immediately washed twice in cold PBS 1X/no-FBS. Cells were washed three times in PBS 1×/10%-FBS and resuspended in the same medium and plated in 12-well plates at a density of 1 × 10^5 cells/200 µL medium and grown overnight at 37 °C in a 5% CO2 humidified atmosphere. […] The cells were collected and then analysed by flow cytometry (BD; FACScanto II, Mountain View, CA, USA) and data were processed using FCS Express v6 software. Two independent biological replicates were performed.

HT29 [3] = assay: CFSE proliferation assay, HT29; type: cell-based, human; details: 19 µM, 48 h
Description: as §2

B16F10 cells = assay: MTS viability assay, B16F10; type: cell-based, murine; details: Mus musculus, B16-F10, 24 h
Description: In the case of experiments using nanoemulsions, cell proliferation was evaluated after treatments. To do this the complete medium containing treatments was removed and replaced with fresh culture medium supplemented with 10% tetrazolium compound of the MTS® assay (CellTiter 96® Aqueous Non-Radioactive Cell Proliferation Assay), according to the manufacturer’s instructions (Promega, Madison, WI, USA). The soluble formazan produced by live cells was detected as absorbance at 490 nm on a Multiscan Reader (Synergy-H4, Biotek). Background values contributed by excess of cell debris and bubbles were measured at 650 nm and were subtracted.
Figure 7 Effect of 4s-NEM on the viability of cancer (B16F10) and non-cancer (HEK293) cells in vitro. Cells were treated with 4s-NEM at different concentrations for 24 h and their viability was evaluated using the MTS assay; SDS, the vehicle for NEM, and 4s free in the culture medium were used as controls. The IC50 was determined in each case. (A) Effect of 4s-NEM on B16F10 cells. Six independent experiments were performed in triplicate. Results are shown as the mean ± SEM. (B) Effect of 4s-NEM on HEK293 cells. Results are shown as the mean ± SEM of three separate experiments. (***) p < 0.001, (*) p < 0.05 vs. control, ns = non-significant. Data analysis was performed via a 2-way ANOVA Tukey’s multiple comparisons test.

H1975 = assay: MTT cytotoxicity assay, H1975; type: cell-based; details: Homo sapiens, NCI-H1975, 72 h, MTT; for cytotoxicity at 50 µM: read-out: % Cytotoxicity (50 µM) H1975; for IC50: 0.05–50 µM
Description: as §1

IC50 (B16F10 cells) [µM]	SMILES	decrease in S phase (HT29 [1]) [%]	increase of the G1/G0 phase (HT29 [1]) [%]	selectivity for cancer cells compared to HEK293 control cells (tumour cell lines) [times]	cytotoxicity in tumour cell lines (tumour cell lines; 50 µM, 72 h, MTT, tumour cell lines tested)	IC50 (tumour cell lines; Homo sapiens, depending on the tumour cell line, 72 h, read-out: IC50 range over tumour cell lines) [µM]	fold increase in cytotoxicity compared to vismodegib (tumour cell lines; from IC50 values) [fold]	induction of apoptosis [2]	HEK293 cell proliferation (CFSE) (HEK293)	HT29 cell proliferation (CFSE) (HT29 [3])	cytotoxicity at 50 µM (H1975) [%]	IC50 (H1975) [µM]
27.5	CCCCCCn1cnc2c(-c3ccc(OC(F)(F)F)cc3)nc(N3CCN(c4ccncc4)CC3)nc21 [Compound 4s, 9-Hexyl-2-(4-(pyridin-4-yl)piperazin-1-yl)-6-(4-(trifluoromethoxy)phenyl)-9H-purine]	12	24	40	more than 80%	1.3 to 15	~40	induced apoptosis in a dose-dependent manner	no effect	significantly reduced HT29 cell proliferation	99 ± 0.2	1.5 ± 0.3
–	CS(=O)(=O)c1ccc(C(=O)Nc2ccc(Cl)c(-c3ccccn3)c2)c(Cl)c1 [Vismodegib, reference compound]	–	10	–	–	–	–	–	less effect on reducing proliferation than 4s	less effect on reducing proliferation than 4s	53 ± 1.2	> 50
